In patent US20070010671A1, “Novel quinazoline derivatives and methods of treatment related to the use thereof” (priority 2003, published 2007):

molecular target: MCH receptor (Homo sapiens, UniProt Q99705); experiment: High throughput functional screening FLIPR/FDSS6000: inhibition of MCH-evoked intracellular Ca2+ changes; format: cell-based; details: class by percent of control at 10^-7 M or IC50
Summary of the method: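 Antagonism was measured as inhibition of calcium responses to 50 nM MCH, monitored 290 s at ex 488/em 530 nm on FLIPR or FDSS6000. Beforehand, cells bearing a constitutively active MCH receptor received Fluo4-AM (4 μM, 1 h, 37 °C) with probenecid, and test compound for 3 min.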

Structure (SMILES)	class
CCOC(=O)c1cccc(NC(=S)N[C@H]2CC[C@@H](Nc3nc(N(C)C)c4ccccc4n3)CC2)c1 [compound 306]	1 (Class 1: The value of percent of control at 10^−7 M was less than 40% or the value of IC50 was less than 50 nM.)
CN(C)c1nc(N[C@H]2CC[C@@H](CNC(=S)NCCc3ccc(Cl)cc3)CC2)nc2ccccc12 [compound 666]	3 (Class 3: The value of percent of control at 10^−7 M was more than 60% or the value of IC50 was more than 200 nM.)
Cc1cc(C)cc(NC(=O)NC[C@H]2CC[C@@H](Nc3nc(N(C)C)c4ccccc4n3)CC2)c1 [compound 526]	3 (Class 3: The value of percent of control at 10^−7 M was more than 60% or the value of IC50 was more than 200 nM.)
CN(C)c1nc(N[C@H]2CC[C@@H](CNC(=S)Nc3cccc(C#N)c3)CC2)nc2ccccc12 [compound 649, N-(3-ciyanophenyl)-N′-[(cis-4-{[4-(dimethylamino)quinazolin-2-yl]amino}cyclohexyl)methyl]thiourea]	3 (Class 3: The value of percent of control at 10^−7 M was more than 60% or the value of IC50 was more than 200 nM.)
CC(NC(=S)N[C@H]1CC[C@@H](Nc2nc(N(C)C)c3ccccc3n2)CC1)c1ccccc1 (relative stereo) [compound 283]	2 (Class 2: The value of percent of control at 10^−7 M was from 40% to 60% or the value of IC50 was from 50 nM to 200 nM.)
Cc1ccc(C)c(NC(=O)NC[C@H]2CC[C@@H](Nc3nc(N(C)C)c4ccccc4n3)CC2)c1 [compound 481]	3 (Class 3: The value of percent of control at 10^−7 M was more than 60% or the value of IC50 was more than 200 nM.)
CCOC(=O)c1ccc(NC(=S)N[C@H]2CC[C@@H](Nc3nc(N(C)C)c4ccccc4n3)CC2)cc1 [compound 272]	3 (Class 3: The value of percent of control at 10^−7 M was more than 60% or the value of IC50 was more than 200 nM.)
Cc1ccc(Cl)c(NC(=O)NC[C@H]2CC[C@@H](Nc3nc(N(C)C)c4ccccc4n3)CC2)c1 [compound 486]	2 (Class 2: The value of percent of control at 10^−7 M was from 40% to 60% or the value of IC50 was from 50 nM to 200 nM.)
CN(C)c1nc(N[C@H]2CC[C@@H](CNC(=O)Nc3ccc4ccccc4c3)CC2)nc2ccccc12 [compound 511]	3 (Class 3: The value of percent of control at 10^−7 M was more than 60% or the value of IC50 was more than 200 nM.)
COc1cccc(NC(=S)NC[C@H]2CC[C@@H](Nc3nc(N(C)C)c4ccccc4n3)CC2)c1 [compound 652]	3 (Class 3: The value of percent of control at 10^−7 M was more than 60% or the value of IC50 was more than 200 nM.)
CCCCNC(=O)NC[C@H]1CC[C@@H](Nc2nc(N(C)C)c3ccccc3n2)CC1 [compound 414, N-butyl-N′-[(cis-4-{[4-(dimethylamino)quinazolin-2-yl]amino}cyclohexyl)methyl]urea]	2 (Class 2: The value of percent of control at 10^−7 M was from 40% to 60% or the value of IC50 was from 50 nM to 200 nM.)
CN(C)c1nc(N[C@H]2CC[C@@H](NC(=O)NC3CCN(C(=O)OCc4ccccc4)CC3)CC2)nc2ccccc12 [compound 350]	3 (Class 3: The value of percent of control at 10^−7 M was more than 60% or the value of IC50 was more than 200 nM.)
CC(C)NC(=O)NC[C@H]1CC[C@@H](Nc2nc(N(C)C)c3ccccc3n2)CC1 [compound 443]	3 (Class 3: The value of percent of control at 10^−7 M was more than 60% or the value of IC50 was more than 200 nM.)
Cc1ccc(NC(=O)NC[C@H]2CC[C@@H](Nc3nc(N(C)C)c4ccccc4n3)CC2)cc1Cl [compound 464]	3 (Class 3: The value of percent of control at 10^−7 M was more than 60% or the value of IC50 was more than 200 nM.)
CN(C)c1nc(N[C@H]2CC[C@@H](CNC(=O)Nc3cc([N+](=O)[O-])ccc3Cl)CC2)nc2ccccc12 [compound 487]	3 (Class 3: The value of percent of control at 10^−7 M was more than 60% or the value of IC50 was more than 200 nM.)
CN(C)c1nc(N[C@H]2CC[C@@H](CNC(=S)Nc3ccc(F)c(C(F)(F)F)c3)CC2)nc2ccccc12 [compound 660]	3 (Class 3: The value of percent of control at 10^−7 M was more than 60% or the value of IC50 was more than 200 nM.)
CN(C)c1nc(N[C@H]2CC[C@@H](CNC(=O)Nc3cc(F)cc(C(F)(F)F)c3)CC2)nc2ccccc12 [compound 532]	2 (Class 2: The value of percent of control at 10^−7 M was from 40% to 60% or the value of IC50 was from 50 nM to 200 nM.)

same assay, conditions: class by percent of control at 10^-7 M or by IC50; read-out: class

IC50 [nM]	Structure (SMILES)
< 50	CN(C)c1nc(N[C@H]2CC[C@@H](NC(=O)Nc3ccc(Br)cc3C(F)(F)F)CC2)nc2ccccc12 [compound 141, N-[4-bromo-2-(trifluoromethyl)pheny]-N′-(cis-4-{[4-(dimethylamino)quinazolin-2-yl]amino}cyclohexyl)urea]
> 200	CN(C)c1nc(N[C@H]2CC[C@@H](NC(=O)Nc3cccc(C(F)(F)F)c3)CC2)nc2ccccc12 [compound 56]
< 50	COc1ccc(NC(=O)N[C@H]2CC[C@@H](Nc3nc(N(C)C)c4ccccc4n3)CC2)cc1Cl [compound 131, N-(3-chloro-4-methoxyphenyl)-N′-(cis-4-{[4-(dimethylamino)quinazolin-2-yl]amino}cyclohexyl)urea]
> 200	Cc1ccc(NC(=O)N[C@H]2CC[C@@H](Nc3nc(N(C)C)c4ccccc4n3)CC2)cc1Cl [compound 64]
50 to 200	CN(C)c1nc(N[C@H]2CC[C@@H](NC(=S)Nc3ccc(F)cc3)CC2)nc2ccccc12 [compound 175, N-(cis-4-{[4-(dimethylamino)quinazolin-2-yl]amino}cyclohexyl)-N′-(4-fluorophenyl)thiourea]
< 50	Cc1cccc(C)c1NC(=S)N[C@H]1CC[C@@H](Nc2nc(N(C)C)c3ccccc3n2)CC1 [compound 169, N-(cis-4-{[4-(dimethylamino)quinazolin-2-yl]amino}cyclohexyl)-N′-(2,6-dimethylphenyl)thiourea]
< 50	CC(NC(=O)NC1CCC(Nc2nc(N(C)C)c3ccccc3n2)CC1)c1ccccc1 (centres unmarked) [compound 66, 1-[4-(4-Dimethylamino-quinazolin-2-ylamino)-cyclohexyl]-3-(1-phenyl-ethyl)-urea]
< 50	COc1ccc(NC(=O)N[C@H]2CC[C@@H](Nc3nc(N(C)C)c4ccccc4n3)CC2)c(OC)c1 [compound 79]
> 200	CN(C)c1nc(N[C@H]2CC[C@@H](NC(=O)NC3c4ccccc4-c4ccccc43)CC2)nc2ccccc12 [compound 840, N-(cis-4-{[4-(dimethylamino)quinazolin-2-yl]amino}cyclohexyl)-N′-9H-fluoren-9-ylurea]
> 200	CCCCNC(=S)N[C@H]1CC[C@@H](Nc2nc(N(C)C)c3ccccc3n2)CC1 [compound 159]
> 200	CN(C)c1nc(N[C@H]2CC[C@@H](NC(=O)Nc3cccc(SC(F)(F)F)c3)CC2)nc2ccccc12 [compound 119]

same assay, conditions: class by percent of control at 10^−7 M or by IC50; read-out: class

IC50 [nM]	Structure (SMILES)
< 50	CN(C)c1nc(N[C@H]2CC[C@@H](CNC(=O)c3cc(F)cc(F)c3)C2)nc2ccccc12 [Example 1130, N-[((1R,3S)-3-{[4-(dimethylamino)quinazolin-2-yl]amino}cyclopentyl)methyl]-3,5-difluorobenzamide]
> 200	CN(C)c1nc(N[C@H]2CC[C@@H](CNC(=O)C(O)c3ccc(Br)cc3)CC2)nc2ccccc12 (relative stereo) [Example 1098, 2-(4-bromophenyl)-N-[(cis-4-{[4-(dimethylamino)quinazolin-2-yl]amino}cyclohexyl)methyl]-2-hydroxyacetamide]
< 50	CN(C)c1nc(N[C@H]2CC[C@@H](C(=O)NCc3ccccc3OC(F)F)CC2)nc2ccccc12 [Example 1184, cis-N-[2-(difluoromethoxy)benzyl]-4-{[4-(dimethylamino)quinazolin-2-yl]amino}cyclohexanecarboxamide]
50 to 200	CN(C)c1nc(N[C@H]2CC[C@@H](C(=O)NCc3ccc(C(F)(F)F)cc3)CC2)nc2cc(F)c(F)cc12 [Example 999, cis-4-{[4-(dimethylamino)-6,7-difluoroquinazolin-2-yl]amino}-N-[4-(trifluoromethyl)benzyl]cyclohexanecarboxamide]
> 200	CN(C)c1nc(N[C@H]2CC[C@@H](CNC(=O)C(O)c3cccc(F)c3F)CC2)nc2ccccc12 (relative stereo) [Example 1093, 2-(2,3-difluorophenyl)-N-[(cis-4-{[4-(dimethylamino)quinazolin-2-yl]amino}cyclohexyl)methyl]-2-hydroxyacetamide]
< 50	CN(C)c1nc(N[C@H]2CC[C@@H](NC(=O)CN(C)c3ccccc3)CC2)nc2ccccc12 [Example 1088, N-(cis-4-{[4-(dimethylamino)quinazolin-2-yl]amino}cyclohexyl)-N2-methyl-N2-phenylglycinamide]
< 50	Cc1ccc([C@H](C)NC(=O)[C@H]2CC[C@@H](Nc3nc(N(C)C)c4cc(F)c(F)cc4n3)CC2)cc1 [Example 1007, cis-4-{[4-(dimethylamino)-6,7-difluoroquinazolin-2-yl]amino}-N-[(1S)-1-(4-methylphenyl)ethyl]cyclohexanecarboxamide]
> 200	CN(C)c1nc(N[C@H]2CC[C@@H](C(=O)Nc3cccnc3Cl)CC2)nc2ccccc12 [Example 1197, cis-N-(2-chloropyridin-3-yl)-4-{[4-(dimethylamino)quinazolin-2-yl]amino}cyclohexanecarboxamide]
> 200	CN(C)c1nc(NC[C@@H]2CC[C@H](NC(=O)c3cccc(F)c3)C2)nc2ccccc12 [Example 1132, N-[(1S,3R)-3-({[4-(dimethylamino)quinazolin-2-yl]amino}methyl)cyclopentyl]-3-fluorobenzamide]
50 to 200	CN(C)c1nc(N[C@H]2CC[C@@H](CNC(=O)C(O)c3cccc(C(F)(F)F)c3)CC2)nc2ccccc12 (relative stereo) [Example 1104, N-[(cis-4-{[4-(dimethylamino)quinazolin-2-yl]amino}-cyclohexyl)-methyl]-2-hydroxy-2-[3-(trifluoromethyl)phenyl]-acetamide]
